Test results taken from US6737383B1, “Herbicidal oxadiazolidines” (priority 1999, dated 2004).

Legend:
velvetleaf = test: Test B pre/postemergence velvetleaf; format: in vivo, Abutilon theophrasti
Method in brief: (§1)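 Response is a visual 0-to-10 score relative to untreated plants, where 0 means no effect and 10 means complete control, taken twelve to sixteen days after application. Treatments went onto soil at planting and onto foliage of 1- to 4-leaf plants, using a surfactant-containing non-phytotoxic solvent.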

purple nutsedge = test: Test B pre/postemergence purple nutsedge; format: in vivo, Cyperus rotundus
Method in brief: as §1

bedstraw = test: Test B pre/postemergence bedstraw; format: in vivo, Galium aparine
Method in brief: as §1

wild oat = test: Test B pre/postemergence wild oat; format: in vivo, Avena fatua
Method in brief: as §1

rice = test: Test B flood test rice; format: in vivo, Oryza sativa
Method in brief: (§2)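 Plants were grown to the 2-leaf stage before treatment with test chemical, then held in a greenhouse for twelve to sixteen days. Injury was visually rated against untreated controls on a 0–10 scale, where 0 is no effect and 10 is complete control.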

wheat = test: Test B pre/postemergence wheat; format: in vivo, Triticum aestivum
Method in brief: as §1

giant foxtail = test: Test B pre/postemergence giant foxtail; format: in vivo, Setaria faberii
Method in brief: as §1

duck salad = test: Test B flood test duck salad; format: in vivo, Heteranthera limosa
Method in brief: as §2

bamyardgrass = test: Test B flood test barnyardgrass; format: in vivo, Echinochloa crus-galli
Method in brief: as §2

pigweed = test: Test B pre/postemergence pigweed; format: in vivo, Amaranthus retroflexus
Method in brief: as §1

blackgrass = test: Test B pre/postemergence blackgrass; format: in vivo, Alopecurus myosuroides
Method in brief: as §1

soybean = test: Test B pre/postemergence soybean; format: in vivo, Glycine max
Method in brief: as §1

sugar beet = test: Test B pre/postemergence sugar beet; format: in vivo, Beta vulgaris
Method in brief: as §1

smallflower flatsedge = test: Test B flood test smallflower flatsedge; format: in vivo, Cyperus difformis
Method in brief: as §2

rape = test: Test B pre/postemergence rape; format: in vivo, Brassica napus
Method in brief: as §1

morningglory = test: Test B pre/postemergence morningglory; format: in vivo, Ipomoea hederacea
Method in brief: as §1

[1] = Preemergence, Rate 62 g/ha, scale of 0 to 10 where 0 is no effect and 10 is complete control
[2] = Preemergence, Rate 125 g/ha, 0 is no effect, 10 is complete control
[3] = Preemergence, Rate 250 g/ha, scale 0 to 10, 0 is no effect, 10 is complete control
[4] = Preemergence, Rate 500 g/ha, scale 0 to 10 (0 no effect, 10 complete control)
[5] = Rate 250 g/ha, Postemergence, scale 0 to 10, 0 is no effect, 10 is complete control
[6] = Rate 500 g/ha, Postemergence, scale 0 to 10
[7] = Postemergence, Rate 125 g/ha, scale of 0 to 10 where 0 is no effect and 10 is complete control
[8] = Rate 62 g/ha, Postemergence, scale of 0 to 10 where 0 is no effect and 10 is complete control
[9] = Rate 62 g/ha, headed Pre-emergence (flood test species), scale 0 to 10 (0 no effect, 10 complete control)
[10] = Rate 125 g/ha, Pre-emergence, flood test species, scale 0 to 10 where 0 is no effect and 10 is complete control
[11] = Rate 250 g/ha, Pre-emergence, flood-test species, scale 0 to 10, 0 is no effect, 10 is complete control
[12] = Rate 500 g/ha, headed Pre-emergence (flood test species), scale 0 to 10 (0 no effect, 10 complete control)

SMILES: CC(C)N(Cc1ccccc1)C(=O)n1oc(=O)n(C(C)C)c1=O [Compound 165]
- Velvetleaf plant response rating (velvetleaf; [1]): 0
- Velvetleaf plant response rating (0 to 10 scale) (velvetleaf; [2]): 1
- Velvetleaf plant response rating (velvetleaf; [3]): 4
- Velvetleaf plant response rating (velvetleaf; [4]): 4
- Plant response rating, Velvetleaf (velvetleaf; [5]): 1
- Velvetleaf plant response rating (velvetleaf; [6]): 1
- Nutsedge plant response rating (purple nutsedge; [7]): 0
- Nutsedge plant response rating (purple nutsedge; [1]): 0
- Nutsedge plant response rating (0 to 10 scale) (purple nutsedge; [2]): 0
- Nutsedge plant response rating (purple nutsedge; [3]): 0
- Nutsedge plant response rating (purple nutsedge; [4]): 0
- Nutsedge plant response rating (purple nutsedge; [8]): 0
- Plant response rating, Nutsedge (purple nutsedge; [5]): 0
- Nutsedge plant response rating (purple nutsedge; [6]): 0
- Bedstraw plant response rating (bedstraw; [7]): 0
- Bedstraw plant response rating (bedstraw; [1]): 0
- Bedstraw plant response rating (0 to 10 scale) (bedstraw; [2]): 1
- Bedstraw plant response rating (bedstraw; [3]): 3
- Bedstraw plant response rating (bedstraw; [4]): 4
- Bedstraw plant response rating (bedstraw; [8]): 0
- Plant response rating, Bedstraw (bedstraw; [5]): 4
- Bedstraw plant response rating (bedstraw; [6]): 8
- Wild oats plant response rating (wild oat; [1]): 4
- Wild oats plant response rating (0 to 10 scale) (wild oat; [2]): 4
- Wild oats plant response rating (wild oat; [3]): 4
- Wild oats plant response rating (wild oat; [4]): 6
- Plant response rating, Wild oats (wild oat; [5]): 3
- Wild oats plant response rating (wild oat; [6]): 3
- Rice plant response rating (rice; [9]): 0
- Rice plant response rating (rice; [10]): 0
- Rice plant response rating (rice; [11]): 0
- Plant response rating, Rice (rice; [12]): 0
- Wheat plant response rating (wheat; [1]): 0
- Wheat plant response rating (0 to 10 scale) (wheat; [2]): 0
- Wheat plant response rating (wheat; [3]): 0
- Wheat plant response rating (wheat; [4]): 2
- Plant response rating, Wheat (wheat; [5]): 2
- Wheat plant response rating (wheat; [6]): 3
- Giant foxtail plant response rating (giant foxtail; [7]): 1
- Giant foxtail plant response rating (giant foxtail; [1]): 6
- Giant foxtail plant response rating (0 to 10 scale) (giant foxtail; [2]): 7
- Giant foxtail plant response rating (giant foxtail; [3]): 8
- Giant foxtail plant response rating (giant foxtail; [4]): 9
- Giant foxtail plant response rating (giant foxtail; [8]): 0
- Plant response rating, Giant foxtail (giant foxtail; [5]): 5
- Giant foxtail plant response rating (giant foxtail; [6]): 8
- Ducksalad plant response rating (duck salad; [9]): 0
- Ducksalad plant response rating (duck salad; [10]): 0
- Ducksalad plant response rating (duck salad; [11]): 0
- Plant response rating, Ducksalad (duck salad; [12]): 0
- Barnyardgrass plant response rating (bamyardgrass; [9]): 0
- Barnyardgrass plant response rating (bamyardgrass; [10]): 0
- Barnyardgrass plant response rating (bamyardgrass; [11]): 0
- Plant response rating, Barnyardgrass (bamyardgrass; [12]): 1
- Redroot pigweed plant response rating (pigweed; [7]): 2
- Redroot pigweed plant response rating (pigweed; [1]): 0
- Redroot pigweed plant response rating (0 to 10 scale) (pigweed; [2]): 0
- Redroot pigweed plant response rating (pigweed; [3]): 0
- Redroot pigweed plant response rating (pigweed; [4]): 1
- Redroot pigweed plant response rating (pigweed; [8]): 0
- Plant response rating, Redroot pigweed (pigweed; [5]): 4
- Redroot pigweed plant response rating (pigweed; [6]): 4
- Blackgrass plant response rating (blackgrass; [7]): 3
- Blackgrass plant response rating (blackgrass; [1]): 0
- Blackgrass plant response rating (0 to 10 scale) (blackgrass; [2]): 3
- Blackgrass plant response rating (blackgrass; [3]): 6
- Blackgrass plant response rating (blackgrass; [4]): 8
- Blackgrass plant response rating (blackgrass; [8]): 0
- Plant response rating, Blackgrass (blackgrass; [5]): 7
- Blackgrass plant response rating (blackgrass; [6]): 8
- Soybean plant response rating (soybean; [7]): 4
- Soybean plant response rating (soybean; [1]): 0
- Soybean plant response rating (0 to 10 scale) (soybean; [2]): 0
- Soybean plant response rating (soybean; [3]): 0
- Soybean plant response rating (soybean; [4]): 0
- Soybean plant response rating (soybean; [8]): 2
- Plant response rating, Soybean (soybean; [5]): 6
- Soybean plant response rating (soybean; [6]): 6
- Sugarbeets plant response rating (sugar beet; [7]): 0
- Sugarbeets plant response rating (sugar beet; [1]): 0
- Sugarbeets plant response rating (0 to 10 scale) (sugar beet; [2]): 4
- Sugarbeets plant response rating (sugar beet; [3]): 4
- Sugarbeets plant response rating (sugar beet; [4]): 4
- Sugarbeets plant response rating (sugar beet; [8]): 0
- Plant response rating, Sugarbeets (sugar beet; [5]): 3
- Sugarbeets plant response rating (sugar beet; [6]): 6
- S. Flatsedge plant response rating (smallflower flatsedge; [9]): 0
- S. Flatsedge plant response rating (smallflower flatsedge; [10]): 0
- S. Flatsedge plant response rating (smallflower flatsedge; [11]): 0
- S. Flatsedge plant response rating (smallflower flatsedge; Rate 500 g/ha, Pre-emergence, flood test species, scale 0 to 10 (0 no effect, 10 complete control)): 0
- Rape plant response rating (rape; [7]): 0
- Rape plant response rating (rape; [1]): 0
- Rape plant response rating (0 to 10 scale) (rape; [2]): 0
- Rape plant response rating (rape; [3]): 4
- Rape plant response rating (rape; [4]): 10
- Rape plant response rating (rape; [8]): 0
- Plant response rating, Rape (rape; [5]): 0
- Rape plant response rating (rape; [6]): 2
- Morningglory plant response rating (morningglory; [7]): 3
- Morningglory plant response rating (morningglory; [1]): 0
- Morningglory plant response rating (0 to 10 scale) (morningglory; [2]): 0
- Morningglory plant response rating (morningglory; [3]): 0
- Morningglory plant response rating (morningglory; [4]): 3
- Morningglory plant response rating (morningglory; [8]): 3
- Plant response rating, Morningglory (morningglory; [5]): 3
- Morningglory plant response rating (morningglory; [6]): 4
